Test system: MatLyLu mouse prostate cancer cells
Test: Apoptosis of camptothecin-pretreated MatLyLu cells verified by conventional flow cytometry (FITC-annexin V / propidium iodide)
Format: cell-based
Settings: MatLyLu cells pretreated with camptothecin
Description: MatLyLu […] prostate cancer cells pretreated with camptothecin were employed as a positive control. It was verified by conventional flow cytometry that more than about 80% of the camptothecin-treated cells undergo apoptosis (i.e. >80% of the treated cells were FITC-annexin V^+ positive and propidium iodide negative). The camptothecin-treated cells were then labeled with the AF647-conjugated annexin-V and injected intravenously into the mouse. The circulating annexin-V^+ cells were measured by focusing a He—Ne laser beam having a wavelength of 633 nm through a slit onto an ear vessel (typically a small artery) and confocally detecting the fluorescent bursts (peaks) as individual cells flowed through the probe beam. The emitted fluorescence was detected by a photomultiplier tube and was digitized for analysis. The confocal detection of the emitted fluorescence allowed continuous monitoring over the measurement period of the labeled cells flowing through the vessel.

CC[C@@]1(O)C(=O)OCc2c1cc1n(c2=O)Cc2cc3ccccc3nc2-1 [camptothecin]
treated cells undergoing apoptosis (FITC-annexin V positive and propidium iodide negative): more than 80%

Reference: patent US8211660B2, “In-vivo monitoring of circulating apoptotic cells” (The General Hospital Corporation, priority 2004, dated 2012)
